Columns and labels:
[1] = cited from earlier work
[2] = Clinical study in endometriosis patients, pain by visual analogue scale (VAS); type: in vivo, human; details: over 6 months
[3] = system: ovulation (排卵); details: daily dose; no test or source given; cited from earlier work
[4] = attributed to partial androgenic action, not progestational activity; cited from earlier work
[5] = 2 mg dienogest daily, 24 weeks, endometriosis patients

C[C@]12CCC3=C4CCC(=O)C=C4CC[C@H]3[C@@H]1CC[C@@]2(O)CC#N [DNG]
intolerable menstruation [1, 5]: 没有报道不可耐受的月经 | patients reporting irregular menstruation [1, 5]: ≤ 90% | treatment result compared with danazol or GnRH agonist [1, 5]: 相当 | change in pain (VAS) at end of treatment compared with start of study ([2]; DNG oral 2 mg/d (124 patients) or LA 3.75 mg s.c. every 4 weeks (128 patients), endometriosis diagnosed by laparoscopy): -47.5 mm | statistical comparison of efficacy, DNG versus LA ([2]; DNG oral 2 mg/d vs LA 3.75 mg s.c. every 4 weeks): 不劣于LA

C#C[C@]1(O)CC[C@H]2[C@@H]3CCC4=Cc5oncc5C[C@]4(C)[C@H]3CC[C@@]21C [达那唑]
side effects of standard endometriosis treatment ([1]; human, in vivo): 显著的雄激素效应

CC(=O)O[C@]1(C(C)=O)CC[C@H]2[C@@H]3C=C(Cl)C4=CC(=O)[C@@H]5C[C@@H]5[C@]4(C)[C@H]3CC[C@@]21C [醋酸环丙孕酮]
ovulation inhibition dose [3]: 1 mg

CC(=O)O[C@]1(C(C)=O)CC[C@H]2[C@@H]3C=C(Cl)C4=CC(=O)CC[C@]4(C)[C@H]3CC[C@@]21C [醋酸氯地孕酮]
ovulation inhibition dose [3]: 1.7 mg

C#C[C@]1(O)CC[C@H]2[C@@H]3CCC4=CC(=O)CC[C@@H]4[C@H]3CC[C@@]21CC [左炔诺孕酮]
effect on bone metabolism [4]: 对骨代谢的正面影响

Reference: patent CN101784271A, “孕激素和(6s)-5-甲基四氢叶酸的组合在治疗子宫内膜异位症并同时减轻治疗副作用以及降低怀孕初期的先天畸形的风险中的应用” (priority 2007, dated 2008)
